Laboratory results: US20090170846A1, “INHIBITORS OF THE HIV INTEGRASE ENZYME” (Pfizer Inc, priority 2005, published 2009)
pEC50, pIC50: −log10 of the molar value. Read-outs that look alike come from different tables or passages of the source.

What was measured:
[1] = target: T1, Full-length wild type HIV-1 integrase (SF1) (Human immunodeficiency virus type 1 group M subtype B, UniProt P04585); test: Integrase strand-transfer scintillation proximity assay; format: biochemical
T1 construct: made in house; host or cells: E. coli BL21 (DE3)
Description: Integrase Strand-Transfer Scintillation Proximity Assay
Oligonucleotides: Oligonucleotide #1-5′-(biotin)[…]-3′ (SEQ ID NO: 1) and oligonucleotide #2-5′-[…]-3′ (SEQ ID NO: 2), were synthesized by TriLink BioTechnologies, Inc. (San Diego, Calif.). The annealed product represents preprocessed viral ds-DNA derived from the LTR U5 sequence of the viral genome. A ds-DNA control to test for non-specific interactions was made using a 3′ di-deoxy derivative of oligonucleotide #1 annealed to oligonucleotide #2. The CA overhang at the 5′ end of the non-biotinylated strand of the ds-DNA was created artificially by using a complimentary DNA oligonucleotide shortened by 2 base pairs. This configuration eliminates the requisite 3′ processing step of the integrase enzyme prior to the strand-transfer mechanism.
Host ds-DNA was prepared as an unlabeled and [^3H]-thymidine labeled product from annealed oligonucleotide #3-5-[…]-3′ (SEQ ID NO: 3), and oligonucleotide #4-1-5′-[…]-3′ (SEQ ID NO: 4), both synthesized by TriLink BioTechnologies, Inc. (San Diego, Calif.). The annealed product had overhanging 3′ ends of poly(dA). Host DNA was custom radiolabeled by PerkinElmer Life Sciences Inc. (Boston, Mass.) using an enzymatic method with a 12/1 ratio of [methyl-^3H]dTTP/cold ds-DNA to yield 5′-blunt end ds-DNA with a specific activity of >900 Ci/mmol. The radiolabeled product was purified using a NENSORB cartridge and stored in stabilized aqueous solution (PerkinElmer). The final radiolabeled product had six [^3H]-thymidine nucleotides at both 5′ ends of the host ds-DNA.
Reagents: Streptavidin-coated polyvinyltoluene (PVT) SPA beads were purchased from Amersham Biosciences (Piscataway, N.J.). Cesium chloride was purchased from Shelton Scientific, Inc. (Shelton, Conn.). White, polystyrene, flat-bottom, non-binding surface, 96-well plates were purchased from Corning. All other buffer components were purchased from Sigma (St. Louis, Mo.) unless otherwise indicated.
Enzyme Construction Full-length wild type HIV-1 integrase (SF1) sequence (amino acids 1-289) was constructed in a pET24a vector (Novagen, Madison, Wis.). The construct was confirmed through DNA sequencing.
Enzyme Purification Full length wild-type HIV Integrase was expressed in E. coli BL21 (DE3) cells and induced with 1 mM isopropyl-1 thio-β-D-galactopyranoside (IPTG) when cells reached an optical density between 0.8-1.0 at 600 nm. Cells were lysed by microfluidation in 50 mM HEPES pH 7.0, 75 mM NaCl, 5 mM DTT, 1 mM 4-(2-Aminoethyl)benzenesulfonylfluoride HCl (AEBSF). Lysate was then centrifuged 20 minutes at 11 k rpm in GSA rotor in Sorvall RC-5B at 4° C. Supernant was discarded and pellet resuspended in 50 mM HEPES pH 7.0, 750 mM NaCl, 5 mM DTT, 1 mM AEBSF and homogenized in a 40 mL Dounce homogenizer for 20 minutes on ice. Homogenate was then centrifuged 20 minutes at 11 k rpm in SS34 rotor in Sorvall RC-5B at 4° C. Supernant was discarded and pellet resuspended in 50 mM HEPES pH 7.0, 750 mM NaCl, 25 mM CHAPS, 5 mM DTT, 1 mM AEBSF. Preparation was then centrifuged 20 minutes at 11 k rpm in SS34 rotor in Sorvall RC-5B at 4° C.
Supernant was then diluted 1:1 with 50 mM HEPES pH 7.0, 25 mM CHAPS, 1 mM DTT, 1 mM AEBSF and loaded onto a Q-Sepharose column pre-equilibrated with 50 mM HEPES, pH 7.0, 375 mM NaCl, 25 mM CHAPS, 1 mM DTT, 1 mM AEBSF. The flow through peak was collected and NaCl diluted to 0.1 M with 50 mM HEPES pH 7.0, 25 mM CHAPS, 1 mM DTT, 0.5 mM AEBSF and loaded onto a SP-Sepharose column pre-equilibrated with 50 mM HEPES pH 7.0, 100 mM NaCl, 25 mM CHAPS, 1 mM DTT, 0.5 mM AEBSF. After washing the column with the equilibration buffer, a 100 to 400 mM NaCl gradient was run. The eluted integrase was concentrated and run on a S-300 gel diffusion column using 50 mM HEPES pH 7.0, 500 mM NaCl, 25 mM CHAPS, 1 mM DTT, 0.5 mM AEBSF. The peak from this column was concentrated to 0.76 mg/mL and stored at −70° C. and later used for strand transfer assays. […]

[2] = test system: RF strain of HIV-1 in CEM-SS cells; test: HIV-1 cell protection assay (XTT dye reduction); format: cell-based
Protocol: HIV-1 Cell Protection Assay
The antiviral activities of potential modulator compounds (test compounds) were determined in HIV-1 cell protection assays using the RF strain of HIV-1, CEM-SS cells, and the XTT dye reduction method (Weislow, O, S. et al., J. Natl. Cancer Inst 81: 577-586 (1989)). Subject cells were infected with HIV-1 RF virus at an moi of to affect about a 90% kill (for example, an moi in the range of from about 0.025 to about 0.819) or mock infected with medium only and added at 2×10^4 cells per well, with the addition of approximately 200 μL of medium, into 96 well plates containing half-log dilutions of test compounds. Six days later, 50 μl of XTT solution (1 mg/ml XTT tetrazolium and 20 nM phenazine methosulfate) were added to the wells and the plates were reincubated for four hours. Viability, as determined by the amount of XTT formazan produced, was quantified spectrophotometrically by absorbance at 450 nm.
Data from CPE assays were expressed as the percent of formazan produced in compound-treated cells compared to formazan produced in wells of uninfected, compound-free cells. The fifty percent effective concentration (EC50) was calculated as the concentration of compound that affected an increase in the percentage of formazan production in infected, compound-treated cells to 50% of that produced by uninfected, compound-free cells. The 50% cytotoxicity concentration (CC50) was calculated as the concentration of compound that decreased the percentage of formazan produced in uninfected, compound-treated cells to 50% of that produced in uninfected, compound-free cells. The therapeutic index was calculated by dividing the cytotoxicity (CC50) by the antiviral activity (EC50).

[3] = integrase strand-transfer SPA, read-out: IC50
[4] = Human immunodeficiency virus 1, CEM-SS, 144 h
[5] = Human immunodeficiency virus 1, 144 h, HIV-1 RF, CEM-SS cells, XTT, six days, read-out: EC50

| SMILES | pIC50 [1, 3] | pEC50 [2, 4] | pIC50 [1] | pEC50 [2, 5] |
| --- | --- | --- | --- | --- |
| CN(O)C(=O)c1cc2c(C(=O)NCCN3CCOCC3)cn(Cc3ccc(F)cc3)c2cn1 [Example 32, 1-(4-fluorobenzyl)-N~5~- hydroxy-N~5~-methyl-N~3~-(2-morpholin-4-ylethyl)-1H-pyrrolo[2,3-c]pyridine-3,5-dicarboxamide] | 6.30 | 6.68 |  |  |
| CCN1CCCC1CNC(=O)c1cn(Cc2ccc(F)cc2)c2cnc(C(=O)NOC)cc12 (stereo not drawn) [Example 8, N3~-[(1-ethylpyrrolidin-2-yl)methyl]-1-(4-fluorobenzyl)-N~5~- methoxy-1H-pyrrolo[2,3-c]pyridine-3,5-dicarboxamide] | 5.85 | 6.15 |  |  |
| CN(O)C(=O)c1cc2c(S(=O)(=O)N3CCNC(=O)C3)cn(Cc3ccc(F)cc3F)c2cn1 [Example 41, 1-(2,4-difluorobenzyl)-N-hydroxy-N-methyl-3-[(3-oxopiperazin-1-yl)sulfonyl]-1H-pyrrolo[2,3-c]pyridine-5-carboxamide] |  |  | 5.94 | 5.48 |
| O=C(NO)c1cc2c(C(=O)N3CCC[C@H]3CO)cn(Cc3ccc(F)cc3)c2cn1 [Example 23, 1-(4-fluorobenzyl)-N-hydroxy-3-{[(2S)-2-(hydroxymethyl)pyrrolidin-1-yl]carbonyl}-1H-pyrrolo[2,3-c]pyridine-5-carboxamide] | 7.12 | 7.24 |  |  |
| CN(O)C(=O)c1cc2c(S(=O)(=O)N3CCC[C@H]3C(N)=O)cn(Cc3ccc(F)cc3F)c2cn1 [Example 42, 3-{[(2S)-2-(aminocarbonyl)pyrrolidin-1-yl]sulfonyl)-1-(2,4-difluorobenzyl)-N-hydroxy-N-methyl-1H-pyrrolo[2,3-c]pyridine-5-carboxamide] |  |  | 5.98 | 5.20 |
| O=C(NO)c1cc2c(C(=O)NCC34CCCN3CCC4)cn(Cc3ccc(F)cc3)c2cn1 [Example 25, 1-(4-fluorobenzyl)-N~5~- hydroxy-N~3~-(tetrahydro-1H-pyrrolizin-7a(5H)-ylmethyl)-1H-pyrrolo[2,3-c]pyridine-3,5-dicarboxamide] | 6.82 | 6.60 |  |  |
| CC(=O)Nc1cn(Cc2ccc(F)cc2)c2cnc(C(=O)NO)cc12 [Example 1, 3-(acetylamino)-1-(4-fluorobenzyl)-N-hydroxy-1H-pyrrolo[2,3-c]pyridine-5-carboxamide] | 6.89 |  |  | 7.96 |
| CONC(=O)c1cc2c(C(=O)NC(C)C)cn(Cc3ccc(F)cc3)c2cn1 [Example 47, 1-(4-fluorobenzyl)-N3-isopropyl-N5-methoxy-1H-pyrrolo[2,3-c]pyridine-3,5-dicarboxamide] | 6.60 | 7.49 |  |  |
| CN(O)C(=O)c1cc2c(C(=O)N3CCCC(CO)C3)cn(Cc3ccc(F)cc3)c2cn1 (stereo not drawn) [Example 33] | 6.49 | 6.85 |  |  |
| Cc1c(CNC(=O)c2cn(Cc3ccc(F)cc3)c3cnc(C(=O)NO)cc23)cnn1C [Example 28, N~3~-[(1,5-dimethyl-1H-pyrazol-4-yl)methyl]-1-(4-fluorobenzyl)-N~5~- hydroxy-1H-pyrrolo[2,3-c]pyridine-3,5-dicarboxamide] | 7.34 | 7.00 |  |  |
| CN(O)C(=O)c1cc2c(C(=O)NC[C@@H]3CCCO3)cn(Cc3ccc(F)cc3)c2cn1 [Example 43, 1-(4-fluorobenzyl)-N5-hydroxy-N5-methyl-N3-[(2S)-tetrahydrofuran-2-ylmethyl]-1H-pyrrolo[2,3-c]pyridine-3,5-dicarboxamide] | 6.66 | 7.10 |  |  |
| NC(=O)[C@@H]1CCCN1S(=O)(=O)c1cn(Cc2ccc(F)cc2F)c2cnc(C(=O)NO)cc12 [Example 36, 3-{[(2S)-2-(aminocarbonyl)pyrrolidin-1-yl]sulfonyl}-1-(2,4-difluorobenzyl)-N-hydroxy-1H-pyrrolo[2,3-c]pyridine-5-carboxamide] | 6.71 |  |  | 6.47 |
| CN(O)C(=O)c1cc2c(C(=O)NCCCN3CCCC3=O)cn(Cc3ccc(F)cc3)c2cn1 [Example 16, 1-(4-fluorobenzyl)-N~5~- hydroxy-N~5~-methyl-N~3~-[3-(2-oxopyrrolidin-1-yl)propyl]-1H-pyrrolo[2,3-c]pyridine-3,5-dicarboxamide] | 6.68 | 6.74 |  |  |
| CN(O)C(=O)c1cc2c(NS(C)(=O)=O)cn(Cc3ccc(F)cc3)c2cn1 [Example 6, 1-(4-fluorobenzyl)-N-hydroxy-N-methyl-3-[(methylsulfonyl)amino]-1H-pyrrolo[2,3-c]pyridine-5-carboxamide] | 6.57 |  |  | 7.52 |
| O=C(NO)c1cc2c(C(=O)N3CCCC(CO)C3)cn(Cc3ccc(F)cc3)c2cn1 (stereo not drawn) [Example 30, 1-(4-fluorobenzyl)-N-hydroxy-3-{[3-(hydroxymethyl)piperidin-1-yl]carbonyl}-1H-pyrrolo[2,3-c]pyridine-5-carboxamide] | 7.14 | 6.96 |  |  |
| CONC(=O)c1cc2c(C(=O)NC(CC(=O)NC3CC3)C3CC3)cn(Cc3ccc(F)cc3)c2cn1 (stereo not drawn) [Example 15, N~3~-[1-cyclopropyl-3-(cyclopropylamino)-3-oxopropyl]-1-(4-fluorobenzyl)-N~5~- methoxy-1H-pyrrolo[2,3-c]pyridine-3,5-dicarboxamide] | 6.52 | 6.92 |  |  |
| CONC(=O)c1cc2c(C(=O)N3CCC[C@@H]3CO)cn(Cc3ccc(F)cc3)c2cn1 [Example 46] | 6.05 | 7.25 |  |  |
| CN(O)C(=O)c1cc2c(C(=O)NCC34CCCN3CCC4)cn(Cc3ccc(F)cc3)c2cn1 [Example 14, 1-(4-fluorobenzyl)-N~5~- hydroxy-N~5~-methyl-N~3~-(tetrahydro-1H-pyrrolizin-7a(5H)-ylmethyl)-1H-pyrrolo[2,3-c]pyridine-3,5-dicarboxamide] | 5.59 | 5.27 |  |  |
